Converted amounts (≈) assume the structure as drawn.
Tested on: P388
Assay: Antiproliferative activity against mouse P388 cells by MTT assay
Format: functional, cell-based

| IC50 | SMILES |
| --- | --- |
| 20 µg/mL (≈ 31.7 µM) | CC(=O)O[C@H]1C[C@@]2(O)[C@@H](OC(=O)c3ccccc3)[C@@H]3[C@]4(OC(C)=O)CO[C@@H]4C[C@H](O)[C@@]3(C)[C@@H](O)[C@H](OC(C)=O)C(=C1C)C2(C)C |
| 0.05 µg/mL (≈ 0.0586 µM) | CC(=O)O[C@H]1C(=O)[C@@]2(C)[C@H]([C@H](OC(=O)c3ccccc3)[C@]3(O)C[C@H](OC(=O)[C@H](O)[C@@H](NC(=O)c4ccccc4)c4ccccc4)C(C)=C1C3(C)C)[C@]1(OC(C)=O)CO[C@@H]1C[C@@H]2O [PACLITAXEL] |
